Results from US12084430B2, “Tricyclic urea compounds as JAK2 V617F inhibitors” (Incyte Corporation, priority 2022, dated 2024).

Experiments:
KIT [1] = test: KIT enzymatic assay; assay type: biochemical
Method: (§1) Example D. KIT Enzymatic Assay
(§2) The kinase assays were carried out at room temperature in assay buffer (HEPES 50 mM, pH 7.0, NaN3 0.02%, BSA 0.01%, Orthovanadate 0.1 mM, DTT 1 mM, MgCl2 10 mM) in a final volume of 10 μL. Testing compounds were prepared by serial dilution in DMSO and transferred to the plate wells by ECHO liquid handler (Labcyte) with 0.5% DMSO in the final assay. […]. Reactions were initiated by the addition of 5 μL ATP in assay buffer. The final 10 μL kinase reaction consists of 0.12 nM KIT, 1 mM ATP, 500 nM TK Substrate-biotin and SEB reagent 62.5 nM in assay buffer. […] The plates were then sealed and centrifuged at 1800 rpm for 2 minutes. After 60 minutes incubation at room temperature, the product activity was determined by measuring the fluorescence at 620 nm and 665 nm on Pherastar microplate reader (BMG Labtech). A ratio is calculated (665/620 nm) for each well. Wells with DMSO only were served as the positive controls and wells containing no ATP were used as negative controls. IC50 determination was performed by fitting the curve of percent control activity versus the log of the compound concentration using the GraphPad Prism 7.0 software.

KIT [2] = target: KIT (Homo sapiens, UniProt P10721); test: KIT enzymatic assay; assay type: biochemical; conditions: 1 mM ATP
Method: as §1, §2

[3] = tested on: STAT5 (Tyr694) phosphorylation in SET-2 cells; test: STAT5 (Tyr694) phosphorylation cell based assay; conditions: Homo sapiens, pSTAT5, 2 hours, read-out: SET2 IC50
Method: Example E. STAT5 (Tyr694) Phosphorylation Cell Based Assay
SET-2 cells was purchased from DSMZ (Germany). RPMI1640 medium, Fetal Bovine Serum and 384-white sold flat-bottom small volume plate were purchased from Thermo Fisher Scientific (Waltham, MA). Phospho-STAT5 (Tyr694) HTRF kit was purchased from Perkin Elmer (Waltham, MA).
SET-2 cells were cultured in RPMI media with 20% FBS at 37° C. in humidified incubator supplied with 5% CO2. On the day of assay, the cells were centrifuged to remove the culture media and resuspended with prewarmed RPMI with 10% FBS. Testing compounds were prepared by serial dilution in DMSO and 50 nL/well test compounds were transferred to the 384 white low volume cell culture plate (Greiner Bio-one) by ECHO liquid handler (Labcyte). The cells were then dispensed with Multidrop (Thermo Fisher, Waltham, MA) at 10 μL/well (7×10^6 cells/mL) with 0.5% DMSO in the final assay. After the treated cells were incubated for 2 hours at 37° C./5% CO2 incubator, 4 μL/well supplemented lysis buffer (100× blocking buffer diluted 25 fold in 4× lysis buffer, Perkin Elmer) were added and incubated at room temperature for 90 min on orbital shaker at 600 rpm. Phospho-STAT5 Cryptate antibody and Phospho-STAT5 d2 antibody (1:1 vol/vol) were premixed and diluted 20 fold with in the detection buffer (Perkin Elmer). 4 μL of the premixed antibody solution were added to each well followed with 24 hours incubation at room temperature on orbital shaker at 600 rpm. The product activity was determined by measuring the fluorescence at 620 nm and 665 nm on Pherastar microplate reader (BMG Labtech). A ratio is calculated (665/620) for each well. Wells with DMSO only served as the positive controls and wells containing high concentration of control compound were used as negative controls. IC50 determination was performed by fitting the curve of percent control activity versus the log of the compound concentration using the GraphPad Prism 7.0 software.

[4] = In vitro intrinsic clearance; assay type: in vitro ADME; conditions: human liver microsomes, 1 μM
Method: Example G. In Vitro Intrinsic Clearance Protocol
For in vitro metabolic stability experiments, test compounds were incubated with human liver microsomes at 37° C. The incubation mixture contained test compounds (1 μM), NADPH (2 mM), and human liver microsomes (0.5 mg protein/mL) in 100 mM phosphate buffer (pH 7.4). The mixture was pre-incubated for 2 min at 37° C. before the addition of NADPH. Reactions were commenced upon the addition of NADPH and quenched with ice-cold methanol at 0, 10, 20, and 30 min. Terminated incubation mixtures were analyzed using LC-MS/MS system. The analytical system consisted of a Shimadzu LC-30AD binary pump system and SIL-30AC autosampler (Shimadzu Scientific Instruments, Columbia, MD) coupled with a Sciex Triple Quad 6500+ mass spectrometer from Applied Biosystems (Foster City, CA). […] Mobile phase A consisted of 0.1% formic acid in water, and mobile phase B consisted of 0.1% formic acid in acetonitrile. The total LC-MS/MS runtime was 2.75 minutes with a flow rate of 0.75 mL/min. Peak area integrations and peak area ratio calculations were performed using Analyst software (version 1.6.3) from Applied Biosystems.
The in vitro intrinsic clearance, CLint, in vitro, was calculated from the t1/2 of test compound disappearance as CLint, in vitro=(0.693/t1/2)×(1/Cprotein), where Cprotein is the protein concentration during the incubation, and t1/2 was determined by the slope (k) of the log-linear regression analysis of the concentration versus time profiles; thus, t1/2=ln 2/k. The CLint, in vitro values were scaled to the in vivo values for human by using physiologically based scaling factors, hepatic microsomal protein concentrations (45 mg protein/g liver), and liver weights (21 g/kg body weight). The equation CLint=CLint, in vitro×(mg protein/g liver weight)×(g liver weight/kg body weight) was used. The in vivo hepatic clearance (CLH) was then calculated by using CLint and hepatic blood flow, Q (20 mL·min^−1·kg^−1 in humans) in the well-stirred liver model disregarding all binding from CLH=(Q×CLint)/(Q+CLint). The hepatic extraction ratio was calculated as CLH divided by Q.

TRKA [5] = target: TRKA (Homo sapiens, UniProt P04629); test: TRKA enzymatic assay; assay type: biochemical; conditions: 1 mM ATP
Method: (§3) Example I. TRKA Enzymatic Assay
(§4) The kinase assays were carried out at 24° C. temperature in assay buffer (HEPES 50 mM, pH 7.0, NaN3 0.02%, BSA 0.01%, Orthovanadate 0.1 mM, DTT 1 mM, MgCl2 10 mM) in a final volume of 10 μL. Testing compounds were prepared by serial dilution in DMSO and transferred to the plate wells by ECHO liquid handler (Labcyte) with 0.5% DMSO in the final assay. […]. Reactions were initiated by the addition of 5 μL ATP in assay buffer. The final 10 μL kinase reaction consists of 0.58 nM TRKA, 1 mM ATP, 500 nM TK Substrate-biotin and SEB reagent 62.5 nM in assay buffer. […] After 60 minutes incubation at room temperature, the product activity was determined by measuring the fluorescence at 620 nm and 665 nm on Pherastar microplate reader (BMG Labtech). A ratio is calculated (665/620 nm) for each well. Wells with DMSO only were served as the positive controls and wells containing no ATP were used as negative controls. IC50 determination was performed by fitting the curve of percent control activity versus the log of the compound concentration using the Gene data.

TRKA [6] = test: TRKA enzymatic assay; assay type: biochemical
Method: as §3, §4

TRKA (Homo sapiens, UniProt P04629), sequence (P04629 33-796, species assumed): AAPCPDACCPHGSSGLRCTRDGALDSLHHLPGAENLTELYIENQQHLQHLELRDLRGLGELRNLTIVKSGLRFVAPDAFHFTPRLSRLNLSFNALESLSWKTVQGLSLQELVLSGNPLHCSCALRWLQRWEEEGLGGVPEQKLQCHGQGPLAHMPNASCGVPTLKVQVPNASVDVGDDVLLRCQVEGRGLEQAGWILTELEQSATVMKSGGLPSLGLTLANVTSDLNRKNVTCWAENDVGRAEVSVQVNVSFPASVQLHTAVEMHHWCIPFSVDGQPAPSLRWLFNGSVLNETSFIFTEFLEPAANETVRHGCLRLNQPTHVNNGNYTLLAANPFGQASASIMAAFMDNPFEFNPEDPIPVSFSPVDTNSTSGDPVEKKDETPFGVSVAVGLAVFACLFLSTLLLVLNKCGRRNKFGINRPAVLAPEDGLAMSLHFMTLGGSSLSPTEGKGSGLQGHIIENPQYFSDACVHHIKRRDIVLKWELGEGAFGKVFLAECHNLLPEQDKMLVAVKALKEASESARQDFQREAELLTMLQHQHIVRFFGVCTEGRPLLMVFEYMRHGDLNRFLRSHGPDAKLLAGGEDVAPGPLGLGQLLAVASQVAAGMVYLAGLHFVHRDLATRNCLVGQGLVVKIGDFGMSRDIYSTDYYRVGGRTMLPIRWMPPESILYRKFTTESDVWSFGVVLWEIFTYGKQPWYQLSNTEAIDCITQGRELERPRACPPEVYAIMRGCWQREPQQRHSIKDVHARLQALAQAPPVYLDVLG
KIT (Homo sapiens, UniProt P10721), sequence (P10721 26-976, species assumed): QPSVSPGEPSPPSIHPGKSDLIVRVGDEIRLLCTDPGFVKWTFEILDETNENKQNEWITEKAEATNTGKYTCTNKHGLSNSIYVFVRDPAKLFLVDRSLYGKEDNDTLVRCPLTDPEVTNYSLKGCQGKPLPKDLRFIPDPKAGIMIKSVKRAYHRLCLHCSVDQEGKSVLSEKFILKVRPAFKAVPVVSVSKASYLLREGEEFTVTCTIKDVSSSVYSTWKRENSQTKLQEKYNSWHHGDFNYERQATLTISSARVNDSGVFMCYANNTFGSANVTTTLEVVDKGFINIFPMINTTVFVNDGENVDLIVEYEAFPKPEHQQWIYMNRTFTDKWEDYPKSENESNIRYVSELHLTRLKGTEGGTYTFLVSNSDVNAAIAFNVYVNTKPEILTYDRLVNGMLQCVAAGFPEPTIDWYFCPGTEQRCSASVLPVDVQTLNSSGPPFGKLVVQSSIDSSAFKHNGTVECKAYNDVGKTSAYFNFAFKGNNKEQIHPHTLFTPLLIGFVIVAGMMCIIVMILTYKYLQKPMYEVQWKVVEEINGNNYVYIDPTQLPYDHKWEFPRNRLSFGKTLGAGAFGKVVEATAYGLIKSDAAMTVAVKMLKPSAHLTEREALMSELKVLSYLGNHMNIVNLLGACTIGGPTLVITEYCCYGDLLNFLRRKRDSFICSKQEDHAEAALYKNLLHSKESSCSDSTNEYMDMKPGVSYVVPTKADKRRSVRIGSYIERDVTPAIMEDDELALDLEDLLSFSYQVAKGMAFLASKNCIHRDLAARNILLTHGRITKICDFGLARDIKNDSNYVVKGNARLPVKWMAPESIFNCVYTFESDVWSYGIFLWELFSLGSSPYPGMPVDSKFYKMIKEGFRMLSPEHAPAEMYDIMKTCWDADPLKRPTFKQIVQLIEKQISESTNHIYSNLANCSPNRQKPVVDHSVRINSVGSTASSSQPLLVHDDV

Compound	Selectivity KIT/JH2 V617F (KIT [1])	IC50 (KIT [2])	IC50 [3]	h-IntCL [4]	IC50 (TRKA [5])	Selectivity TRKA/JH2 V617F (TRKA [6])
[2H]C([2H])([2H])n1cc(-c2[nH]c3ncc4c(c3c2-c2ccc(F)cc2)n([C@@H]2CC[C@@H](NC(=O)OC)C2)c(=O)n4C([2H])([2H])[2H])c(F)n1 [Example 7, Methyl ((1R,3R)-3-(7-(3-fluoro-1-(methyl-d3)-1H-pyrazol-4-yl)-8-(4-fluorophenyl)-3-(methyl-d3)-2-oxo-3,6-dihydroimidazo[4,5-d]pyrrolo[2,3-b]pyridin-1(2H)-yl)cyclopentyl)carbamate]	** (selectivity of >500-fold to ≤1500-fold)	0.25 to 1.25 µM	0.3 to 0.8 µM	‡ (h-IntCL of <0.7 L/h/kg)	> 2.5 µM	***** (selectivity of >5000-fold to ≤12500-fold)
[2H]C([2H])([2H])n1cc(-c2[nH]c3ncc4c(c3c2-c2ccc3c(c2)COC3(C)C)n([C@@H]2CC[C@@H](NC(=O)OC)C2)c(=O)n4C([2H])([2H])[2H])c(F)n1 [Example 8, Methyl ((1R,3R)-3-(8-(1,1-dimethyl-1,3-dihydroisobenzofuran-5-yl)-7-(3-fluoro-1-(methyl-d3)-1H-pyrazol-4-yl)-3-(methyl-d3)-2-oxo-3,6-dihydroimidazo[4,5-d]pyrrolo[2,3-b]pyridin-1(2H)-yl)cyclopentyl)carbamate]	****** (selectivity of >12500-fold)	1.25 to 2.5 µM	≤ 0.3 µM	‡ (h-IntCL of <0.7 L/h/kg)	> 2.5 µM	****** (selectivity of >12500-fold)
[2H]C([2H])([2H])Oc1ccc(-c2c(-c3cn(C([2H])([2H])[2H])nc3F)[nH]c3ncc4c(c23)n([C@@H]2CC[C@@H](NC(=O)OC)C2)c(=O)n4C([2H])([2H])[2H])cc1 [Example 9, Methyl ((1R,3R)-3-(7-(3-fluoro-1-(methyl-d3)-1H-pyrazol-4-yl)-8-(4-(methoxy-d3)phenyl)-3-(methyl-d3)-2-oxo-3,6-dihydroimidazo[4,5-d]pyrrolo[2,3-b]pyridin-1(2H)-yl)cyclopentyl)carbamate]	*** (selectivity of >1500-fold to ≤1750-fold)	0.25 to 1.25 µM	≤ 0.3 µM	‡ ‡ (h-IntCL of ≥0.7 L/h/kg to ≤1 L/h/kg)	1.25 to 2.5 µM	***** (selectivity of >5000-fold to ≤12500-fold)
[2H]C([2H])([2H])n1cc(-c2[nH]c3ncc4c(c3c2-c2ccc(C(C)(C)O)cc2)n([C@@H]2CC[C@@H](NC(=O)OC)C2)c(=O)n4C([2H])([2H])[2H])c(F)n1 [Example 10, Methyl ((1R,3R)-3-(7-(3-fluoro-1-(methyl-d3)-1H-pyrazol-4-yl)-8-(4-(2-hydroxypropan-2-yl)phenyl)-3-(methyl-d3)-2-oxo-3,6-dihydroimidazo[4,5-d]pyrrolo[2,3-b]pyridin-1(2H)-yl)cyclopentyl)carbamate]	*** (selectivity of >1500-fold to ≤1750-fold)	0.25 to 1.25 µM	≤ 0.3 µM	‡ ‡ (h-IntCL of ≥0.7 L/h/kg to ≤1 L/h/kg)	> 2.5 µM	****** (selectivity of >12500-fold)
[2H]C([2H])([2H])n1cc(-c2[nH]c3ncc4c(c3c2-c2ccc3c(c2)COC3(C)C)n([C@@H]2CC[C@@H](NC(=O)OC)C2)c(=O)n4C)c(F)n1 [Example 11, Methyl ((1R,3R)-3-(8-(1,1-dimethyl-1,3-dihydroisobenzofuran-5-yl)-7-(3-fluoro-1-(methyl-d3)-1H-pyrazol-4-yl)-3-methyl-2-oxo-3,6-dihydroimidazo[4,5-d]pyrrolo[2,3-b]pyridin-1(2H)-yl)cyclopentyl)carbamate]	****** (selectivity of >12500-fold)	> 2.5 µM	≤ 0.3 µM	‡ ‡ (h-IntCL of ≥0.7 L/h/kg to ≤1 L/h/kg)	> 2.5 µM	****** (selectivity of >12500-fold)
[2H]C([2H])([2H])n1c(=O)n([C@@H]2CC[C@@H](NC(=O)OC)C2)c2c3c(-c4ccc5c(c4)COC5(C)C)c(-c4cn(CC(F)F)nc4F)[nH]c3ncc21 [Example 12, Methyl ((1R,3R)-3-(7-(1-(2,2-difluoroethyl)-3-fluoro-1H-pyrazol-4-yl)-8-(1,1-dimethyl-1,3-dihydroisobenzofuran-5-yl)-3-(methyl-d3)-2-oxo-3,6-dihydroimidazo[4,5-d]pyrrolo[2,3-b]pyridin-1(2H)-yl)cyclopentyl)carbamate]	****** (selectivity of >12500-fold)	> 2.5 µM	≤ 0.3 µM	‡ ‡ (h-IntCL of ≥0.7 L/h/kg to ≤1 L/h/kg)	> 2.5 µM	****** (selectivity of >12500-fold)
[2H]C([2H])([2H])n1cc(-c2[nH]c3ncc4c(c3c2-c2ccc3c(cnn3C(C)C)c2)n([C@@H]2CC[C@@H](NC(=O)OC)C2)c(=O)n4C([2H])([2H])[2H])c(F)n1 [Example 13, Methyl ((1R,3R)-3-(7-(3-fluoro-1-(methyl-d3)-1H-pyrazol-4-yl)-8-(1-isopropyl-1H-indazol-5-yl)-3-(methyl-d3)-2-oxo-3,6-dihydroimidazo[4,5-d]pyrrolo[2,3-b]pyridin-1(2H)-yl)cyclopentyl)carbamate]	**** (selectivity of >1750-fold to ≤5000-fold)	0.25 to 1.25 µM	≤ 0.3 µM	‡ ‡ (h-IntCL of ≥0.7 L/h/kg to ≤1 L/h/kg)	> 2.5 µM	****** (selectivity of >12500-fold)
